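Step 1: Grow cells in 96-well plates. Step 2: Expose to compound for 48 hours at 5 concentrations. Step 3: Interpolate endpoints linearly; if unreached, use highest concentration. At the GI50, growth is halved.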 Active and inactive are the calls of the source. No stated cut-off is given here; in the data, active = GI50 up to about 1.1 µM and inactive = higher.
Assays:
Experiment in all cases: growth of human tumour cells (NCI), 48 h
K562 = system: K562
COLO 205 = system: COLO 205
A549 = system: A549
OVCAR-4 = system: OVCAR-4
OVCAR-8 = system: OVCAR-8
UACC-62 = system: UACC-62
HCT-15 = system: HCT-15
HOP-92 = system: HOP-92
Malme-3M = system: Malme-3M
KM12 = system: KM12
NCI-H522 = system: NCI-H522
TK-10 = system: TK-10
LOX IMVI = system: LOX IMVI
NCI-H226 = system: NCI-H226
OVCAR-5 = system: OVCAR-5
HOP-62 = system: HOP-62
MDA-N = system: MDA-N
MOLT-4 = system: MOLT-4
SF-539 = system: SF-539
HCC 2998 = system: HCC 2998

Compound	GI50 (K562)	GI50 (COLO 205)	GI50 (A549)	GI50 (OVCAR-4)	GI50 (OVCAR-8)	GI50 (UACC-62)	GI50 (HCT-15) [µM]	GI50 (HOP-92)	GI50 (Malme-3M)	GI50 (KM12)	GI50 (NCI-H522)	GI50 (TK-10)	GI50 (LOX IMVI)	GI50 (NCI-H226)	GI50 (OVCAR-5)	GI50 (HOP-62)	GI50 (MDA-N)	GI50 (MOLT-4)	GI50 (SF-539)	GI50 (HCC 2998)
CCOP(=O)(OCC)C(Cc1ccccc1)N=C(c1ccccc1)c1ccccc1 (configuration not stated)	7.29 µM (inactive)	14.3 µM (inactive)	9.29 µM (inactive)	16.2 µM (inactive)	16.3 µM (inactive)	13.3 µM (inactive)	12.1	13.6 µM (inactive)	20.6 µM (inactive)	15.5 µM (inactive)	12.4 µM (inactive)	11.5 µM (inactive)	11.6 µM (inactive)	14.2 µM (inactive)	14.4 µM (inactive)	17.6 µM (inactive)	14.6 µM (inactive)	4.93 µM (inactive)	–	–
CCOC(=O)C1(Cc2ccc3c(c2)CCC3)Cc2cc3c(cc2C1=O)CCC3 (configuration not stated)	9.95 µM (inactive)	41.7 µM (inactive)	44 µM (inactive)	52 µM (inactive)	> 91.2 µM (inactive)	> 100 µM (inactive)	58.6	–	> 61.2 µM (inactive)	> 50.9 µM (inactive)	47.8 µM (inactive)	> 100 µM (inactive)	> 71.6 µM (inactive)	> 83 µM (inactive)	> 100 µM (inactive)	> 100 µM (inactive)	41.4 µM (inactive)	11.9 µM (inactive)	> 100 µM (inactive)	62.5 µM (inactive)
COc1ccc(/C=C2\CCC(C)C3=C(c4ccc(OC)c(OC)c4)C(C#N)=C(N)OC32)cc1OC (configuration not stated)	3.78 µM (inactive)	2.76 µM (inactive)	–	–	4.01 µM (inactive)	2.86 µM (inactive)	3.33	–	2.48 µM (inactive)	3.3 µM (inactive)	–	4.04 µM (inactive)	3.16 µM (inactive)	2.39 µM (inactive)	2.75 µM (inactive)	–	3.45 µM (inactive)	2.55 µM (inactive)	1.55 µM (inactive)	–
c1ccc2c(c1)ccc1nc(-c3ccc4c(c3)OCO4)c3c(c12)CCCC3	16.3 µM (inactive)	20.3 µM (inactive)	20.6 µM (inactive)	13.6 µM (inactive)	20.2 µM (inactive)	18.8 µM (inactive)	6.07	–	20.8 µM (inactive)	11.3 µM (inactive)	–	–	–	73.1 µM (inactive)	93.5 µM (inactive)	41.9 µM (inactive)	37.9 µM (inactive)	8.26 µM (inactive)	12.5 µM (inactive)	31.7 µM (inactive)
CCOP(=O)(OCC)C(C)(C)OC(=O)NC(F)(F)F	> 100 µM (inactive)	> 100 µM (inactive)	> 100 µM (inactive)	> 100 µM (inactive)	> 100 µM (inactive)	> 100 µM (inactive)	> 100	–	> 100 µM (inactive)	> 100 µM (inactive)	–	> 100 µM (inactive)	> 100 µM (inactive)	12.7 µM (inactive)	> 100 µM (inactive)	> 100 µM (inactive)	> 100 µM (inactive)	> 100 µM (inactive)	> 100 µM (inactive)	> 100 µM (inactive)
CC[C@]12C=CCN3CC[C@@]4(c5cc(Br)c(OC)cc5N(C)[C@H]4[C@@](O)(C(=O)N[C@@H](Cc4ccc(O)cc4)C(=O)OC)[C@@H]1O)[C@@H]32	43 µM (inactive)	18.6 µM (inactive)	25.7 µM (inactive)	14.7 µM (inactive)	24.9 µM (inactive)	17.6 µM (inactive)	23.3	–	14.1 µM (inactive)	11.3 µM (inactive)	17.7 µM (inactive)	22.6 µM (inactive)	14.8 µM (inactive)	–	45.5 µM (inactive)	46.5 µM (inactive)	20 µM (inactive)	14.2 µM (inactive)	19.7 µM (inactive)	25.5 µM (inactive)
COc1ccc(C2Oc3c(cccc3OC)C=C2[N+](=O)[O-])cc1 (configuration not stated)	0.668 µM (active)	2.51 µM (inactive)	11.9 µM (inactive)	2.96 µM (inactive)	2.49 µM (inactive)	1.91 µM (inactive)	1.36	–	2.54 µM (inactive)	1.92 µM (inactive)	1.32 µM (inactive)	2.91 µM (inactive)	1.2 µM (inactive)	–	2.26 µM (inactive)	2.49 µM (inactive)	2 µM (inactive)	1.19 µM (inactive)	–	–
CC1(C)C2C=CC1(C)C1(CC2)OCCO1 (configuration not stated)	> 100 µM (inactive)	> 100 µM (inactive)	–	> 100 µM (inactive)	> 100 µM (inactive)	> 100 µM (inactive)	> 100	–	> 100 µM (inactive)	> 100 µM (inactive)	–	> 100 µM (inactive)	> 100 µM (inactive)	> 100 µM (inactive)	> 100 µM (inactive)	> 100 µM (inactive)	> 100 µM (inactive)	> 100 µM (inactive)	> 100 µM (inactive)	> 100 µM (inactive)
O=C(O)c1nc2ccc(C(F)(F)F)cc2nc1Nc1ccc(Cl)c(Cl)c1	3.66 µM (inactive)	11.6 µM (inactive)	–	6.98 µM (inactive)	4.91 µM (inactive)	2.3 µM (inactive)	8.97	–	13.3 µM (inactive)	6.98 µM (inactive)	2.95 µM (inactive)	20 µM (inactive)	9.82 µM (inactive)	10.6 µM (inactive)	14.4 µM (inactive)	7.85 µM (inactive)	6.73 µM (inactive)	4.37 µM (inactive)	–	4.99 µM (inactive)
COc1ccc(CCn2ccc(=O)c(O)c2C)cc1OC	37.1 µM (inactive)	26.7 µM (inactive)	21.4 µM (inactive)	–	16.9 µM (inactive)	–	2.7	20.4 µM (inactive)	30.7 µM (inactive)	40.3 µM (inactive)	–	5.87 µM (inactive)	25.5 µM (inactive)	–	26.7 µM (inactive)	17.5 µM (inactive)	19.2 µM (inactive)	16 µM (inactive)	26.2 µM (inactive)	–
Cc1c(O)c(=O)ccn1CCc1ccc(O)cc1	32.7 µM (inactive)	31.5 µM (inactive)	32.9 µM (inactive)	22 µM (inactive)	31.3 µM (inactive)	0.615 µM (active)	4.82	24.3 µM (inactive)	22.5 µM (inactive)	41.3 µM (inactive)	–	15.8 µM (inactive)	20.5 µM (inactive)	–	30 µM (inactive)	22.1 µM (inactive)	11.9 µM (inactive)	26.8 µM (inactive)	29.4 µM (inactive)	–
NNC(=O)C1(NC(=O)c2ccccc2)C(c2ccccc2)C(c2ccccc2)=NN1c1ccccc1 (configuration not stated)	27.2 µM (inactive)	45.5 µM (inactive)	43.5 µM (inactive)	12.8 µM (inactive)	55.5 µM (inactive)	23.1 µM (inactive)	18.5	–	> 100 µM (inactive)	35.1 µM (inactive)	55.3 µM (inactive)	58.2 µM (inactive)	23.8 µM (inactive)	> 100 µM (inactive)	33 µM (inactive)	34 µM (inactive)	24.2 µM (inactive)	12.7 µM (inactive)	44.2 µM (inactive)	57.1 µM (inactive)
Cc1cccc2[nH]c3c(c(O)cc4[nH]c5cccc(C)c5c(=O)c43)c(=O)c12	4.02 µM (inactive)	3.84 µM (inactive)	> 10 µM (inactive)	4.33 µM (inactive)	6.11 µM (inactive)	> 10 µM (inactive)	> 10	–	6.95 µM (inactive)	6.87 µM (inactive)	> 10 µM (inactive)	5.08 µM (inactive)	3.65 µM (inactive)	5.16 µM (inactive)	> 10 µM (inactive)	> 10 µM (inactive)	> 10 µM (inactive)	3.88 µM (inactive)	> 10 µM (inactive)	> 10 µM (inactive)
C#CCCOC(=O)c1ccccc1OC(C)=O	> 100 µM (inactive)	> 100 µM (inactive)	–	> 100 µM (inactive)	> 100 µM (inactive)	> 100 µM (inactive)	> 100	> 100 µM (inactive)	–	> 100 µM (inactive)	63.7 µM (inactive)	> 100 µM (inactive)	> 100 µM (inactive)	> 100 µM (inactive)	> 100 µM (inactive)	70.3 µM (inactive)	> 100 µM (inactive)	> 100 µM (inactive)	> 100 µM (inactive)	–
O=C(CCCn1ccnc1[N+](=O)[O-])NCCn1ccnc1[N+](=O)[O-]	> 100 µM (inactive)	> 100 µM (inactive)	> 100 µM (inactive)	> 100 µM (inactive)	> 100 µM (inactive)	> 100 µM (inactive)	> 100	–	> 100 µM (inactive)	> 100 µM (inactive)	> 100 µM (inactive)	> 100 µM (inactive)	> 100 µM (inactive)	> 100 µM (inactive)	> 100 µM (inactive)	> 100 µM (inactive)	> 100 µM (inactive)	> 100 µM (inactive)	> 100 µM (inactive)	> 100 µM (inactive)
O=C(/C=C/c1ccc(O)cc1)c1cc(-c2cc(CCC(=O)c3ccc(O)cc3O)ccc2O)c(O)cc1O	17.7 µM (inactive)	11.4 µM (inactive)	> 50 µM (inactive)	19.7 µM (inactive)	25.5 µM (inactive)	22.8 µM (inactive)	> 50	15.2 µM (inactive)	24.9 µM (inactive)	19.8 µM (inactive)	22.3 µM (inactive)	18.1 µM (inactive)	19.5 µM (inactive)	–	> 50 µM (inactive)	27.4 µM (inactive)	19.1 µM (inactive)	7.23 µM (inactive)	10.8 µM (inactive)	–
